Data on 3 compounds can be found in US7449488B2, “Pyrazolopyrimidines as protein kinase inhibitors” (priority 2002, dated 2008).

Broadly, the IC50 is the concentration at which inhibition is half-maximal.

The target of this assay is T1, CDK2 (cyclin A or E-dependent; cyclin-CDK2 complexes) (Homo sapiens, UniProt P24941).
T1 construct: made in house; host or cells: SF9 insect cells (baculovirus)
The experiment in a line: CDK2 in vitro kinase assay (cyclin A or E-dependent), SPA. The format is biochemical.
Take `CCc1cn2ncc(Br)c2nc1C`: the IC50 is 100 nM.

As to `Cc1nc2c(Br)cnn2cc1CCO`, the IC50 stood at 300 nM.

For `OCC[C@@H]1CCCCN1c1ccn2ncc(Br)c2n1`, the IC50 is 30 nM.
